Patent US10577341B1, “Beraprost-314d monohydrate crystals and methods for preparation thereof” (CHIROGATE INTERNATIONAL INC., priority 2018, dated 2020)

Key:
[1] = Stability of anhydrous form versus monohydrate form of Beraprost-314d; assay and total impurities by HPLC after storage at 40° C.; format: physicochemical; conditions: for Assay / Total Impurities: 40° C./60% RH, HPLC
Experimental: The Beraprost-314d monohydrate is stable at room temperature. For example, the formation of dimer and/or unwanted esterification byproducts by the presence of hydrates can be avoided. […] The assay and total impurities of Beraprost-314d monohydrate and anhydrous Beraprost-314d were measured by HPLC after treatment at 40° C., as shown in Table 3.

[2] = Crystalline form transformation of Beraprost-314d monohydrate Form A to Form B, followed by XRPD after isothermal standing; format: physicochemical; conditions: for XRPD pattern after heating (crystalline form): 24 hours
Experimental: X-ray Powder Diffraction (XRPD) Analysis: The XRPD patterns were collected on a Bruker D2 PHASER diffractometer with fixed divergence slits and 1D LYNXEYE detector. The samples (ca. 100 mg) were placed flat on a sample holder. The prepared samples were analyzed over a 2θ range from 5° to 50° with step size of 0.02 degrees and step time of 1 second using CuKα radiation at a power of 10 mA and 30 kV The CuKβ radiation was removed by a divergent beam nickel filter,
The critical temperature (T*). of crystalline form transformation of Beraprost-314d monohydrate Form A and Form B was determined. Crystalline Beraprost-314d monohydrate Form A (0.10 g, from Example 3) was placed in glass vials, and heated to 25° C., 27° C., 29° C., 31° C., 33° C., and 35° C. and isothermal stood for 24 hours.

[3] = 3 days, listed as Beraprost-314d monohydrate, monohydrate

Structure (SMILES) | Assay ([1]; 1 day) [%] | Total Impurities ([1]; 1 day) [%] | Assay ([1]; 2 days) [%] | Assay ([1]; 3 days) [%] | Total Impurities ([1]; 3 days) [%] | Stability compared with the anhydrous form ([1]; 40° C. for 3 days) | Total Impurities ([1]; 2 days) [%] | Assay [1, 3] | Total Impurities [1, 3] [%] | Assay ([1]; 3 days, monohydrate) [%] | Total Impurities ([1]; 3 days, monohydrate) [%] | XRPD pattern after heating (crystalline form) ([2]; 25° C., 27° C. and 29° C.) | XRPD pattern after heating (crystalline form) ([2]; 31° C., 33° C. and 35° C.) | Critical temperature (T*) of crystalline form transformation from Form A to Form B ([2]; isothermal standing for 24 hours, XRPD)
CC#CC[C@H](C)[C@H](O)/C=C/[C@@H]1[C@H]2c3cccc(CCCC(=O)O)c3O[C@H]2C[C@H]1O [Anhydrous Beraprost-314d, Beraprost-314d] | 99.30 | 0.84 | 99.01 | 98.95 | 1.19 | – | – | – | – | – | – | – | – | –
CC#CC[C@H](C)[C@H](O)/C=C/[C@@H]1[C@H]2c3cccc(CCCC(=O)O)c3O[C@H]2C[C@H]1O.O [Beraprost-314d Monohydrate, Beraprost-314d monohydrate] | 99.89 | 0.17 | 99.77 | – | – | more stable than the anhydrous Beraprost-314d | 0.25 | no apparent decrease | 0.33 | 99.69 | 0.33 | – | – | –
CC#CC[C@H](C)[C@H](O)/C=C/[C@@H]1[C@H]2c3cccc(CCCC(=O)O)c3O[C@H]2C[C@H]1O.O [Beraprost-314d monohydrate] | – | – | – | – | – | – | – | – | – | – | – | remain Form A without any Form B feature peaks | an intermediate state containing both Form A and Form B | about 30±5 °C
